# Results reported in patent US20050119321A1, “2-substituted-1,3-thiazole compounds” (priority 2002, published 2005).
row,melting point,SMILES
1,180 °C (dec.),"COc1ccc(Nc2nc(N)c(C(C)=O)s2)cc1 [Example 3, 1-{4-Amino-2-[(4-methoxyphenyl)amino]-1,3-thiazol-5-yl}ethanone]"
2,176 to 177 °C,"COc1ccc(CCCC(=O)Nc2ncc([N+](=O)[O-])s2)cc1 [Example 6, 4-(4-Methoxyphenyl)-N-(5-nitro-1,3-thiazol-2-yl)butanamide]"
3,224 to 227 °C (dec.),"COc1ccc(CCC(=O)Nc2ncc([N+](=O)[O-])s2)cc1 [Example 5, 3-(4-Methoxyphenyl)-N-(5-nitro-1,3-thiazol-2-yl)propanamide]"
